Results as given in ChEMBL document CHEMBL1157266, “A cyclopeptide from the Insect pathogenic fungus Cordyceps sp. BCC 1788” (J Nat Prod, 2006).
Where a SMILES comes first, the peptide text is derived from it. [ ]: non-standard residue; d: D form. NMeY = CN[C@@H](Cc1ccc(O)cc1)C(=O)O; dNMeF = CN[C@H](Cc1ccccc1)C(=O)O; Sar = CNCC(=O)O

Experiments:
[1] = test system: Plasmodium falciparum; assay: Antimalarial activity against Plasmodium falciparum K1 by [3H]hypoxanthine uptake; type: functional, organism-based
[2] = test system: Vero; assay: Cytotoxicity against african green monkey Vero cells; type: cell-based; details: Chlorocebus sabaeus

Compound | IC50 [1] [nM] | IC50 [2] [nM]
CC[C@H](C)[C@@H]1NC(=O)[C@H](Cc2ccc(O)cc2)N(C)C(=O)[C@H](Cc2ccccc2)NC(=O)CN(C)C(=O)[C@@H]2CCCN2C(=O)[C@@H](Cc2ccccc2)N(C)C(=O)[C@H](CC(C)C)NC1=O [CORDYHEPTAPEPTIDE A] (cyclo(F[NMeY]IL[dNMeF]P[Sar])) | 5350 | > 56900
Cc1c2ccncc2c(C)c2c1[nH]c1ccccc12 [ELLIPTECINE] |  | 2440
C[C@H]1[C@@H](O)O[C@@H]2O[C@@]3(C)CC[C@H]4[C@H](C)CC[C@@H]1[C@@]24OO3 [ARTENIMOL] | 6 | 
